One assay concerns Rhynchosporium secalis. The assay is described as follows: Antifungal activity test against various pathogenic fungi, hypha extension on PDA plates (Test Example 3). The format is cell-based. As to conditions: read-out: Growth Inhibition R.s (100).
The next assay concerns Pyricularia oryzae. The assay is described as follows: microbe, parasite or virus in culture. The format is cell-based. As to conditions: read-out: Growth Inhibition P.o (12.5).
Assay [1] relates to wheat powdery mildew. The assay is described as follows: Permeable mobility fungicidal effect test in leaf section of wheat powdery mildew (Test Example 4). The format is in vivo. The method, then:
In the test example 4, permeable mobility fungicidal effect test was performedon the leaf section of wheat powdery mildew with regard to the compounds I-1 to 27 according to the present invention and the comparative compounds (a) to (d), and (m-1) to (m-3) with the method described later. The compound in the form of a wettable powder obtained by Formulation 2 or the like was diluted and suspended with water to a predetermined concentration (200mg/l), and 0.5 µl of the suspension was applied to a 2 to 3 cm leaf portion from the root of the three leaves of the 4th to 4.5th leaf period wheat (variety: Abukumawase) cultured by using a square plastic pot (size: 6.4 cm x 6.4 cm). After these wheat leaves were subject to still standing in a glass house (temperature: 20 to 24C, relative humidity: 20 to 70 RH) for one day, the spores of wheat powdery mildew were inoculated over the leaves by sprinkling the same with a brush from an infected leaf, a disease was contracted in the same glass house. The length of a non-contracted area generated from the applied portion to the direction of the leaf top was measured, and a relative mobility to the compound (m-2) was calculated with the following calculation […] by using the comparative compound (m-2) as a standard compound. (Equation 4) Relative mobility = (Length of non-contracted area in each chemical section (cm)/Length of non-contracted area of compound (m-2) (cm)) [formula]

Assay [2] relates to Pseudocercosporella herpotrichoides. The assay is described as follows: Antifungal activity test against various pathogenic fungi, hypha extension on PDA plates (Test Example 3). The format is cell-based. As to conditions: Oculimacula yallundae, read-out: Growth Inhibition P.h (25).
The next assay relates to Microdochium nivale. Described as above. The format is cell-based. As to conditions: read-out: Growth Inhibition M.n (3.2).
The next assay has as its system Leptosphaeria nodorum. Described as above. The format is cell-based. As to conditions: Parastagonospora nodorum, read-out: Growth Inhibition L.n (0.8).
Another assay concerns Venturia inaequalis. Described as above. The format is cell-based. As to conditions: read-out: Growth Inhibition V.i (3.2).
A further assay relates to Botrytis cinerea. Described as above. The format is cell-based. As to conditions: read-out: Growth Inhibition B.c (1.6).
A further assay deals with Septoria tritici. The description is as above. The format is cell-based. As to conditions: Zymoseptoria tritici, read-out: Growth Inhibition S.t (100).
In a further assay the test system is Pyrenophora graminea. Described as above. The format is cell-based. As to conditions: read-out: Growth Inhibition P.g (12.5).
The test system of assay [3] is wheat powdery mildew. The assay is described as follows: Test of control effect on wheat powdery mildew (Test Example 1). The format is in vivo. As to conditions: wettable powder 125 mg/l, 100 liters/10 a, sprinkled on wheat seedlings (Nourin 64) before inoculation, examined 9th to 14th day after inoculation; for pest or weed control at 125 µg/mL: Triticum aestivum. The method, then:
Wettable powders were prepared from compounds of the present invention I-1 to I-27 and comparative compounds (a) to (d) , (m-1) and (m-3). The obtained wettable powder was diluted and suspended with water to provide the predetermined concentration (125 mg/l), and was sprinkled onto seedlings of wheat (variety: "Nourin 64") at the first to the second leaf period which were cultivated using square plastic pots (size: 6.4 cm x 6.4 cm) in a rate of 100 liters/10 a (ares). After drying the sprinkled leaves with air, a suspension of wheat powdery mildew spores taken from infected leaves was inoculated by spraying onto the sprinkled leaves. They were supervised in a green house (temperature: 20 to 24°C, relative humidity: 20 to 70 RH). On the 9th to 14th day after the inoculation, the infection degree was examined according to the following scale and the control value of each compound was calculated by the following calculation equation 1. [table] (Equation 1) Control value = (1 - infection degree of treated zone/infection degree of untreated zone) x 100 (%) [formula] The control values of each compound are shown in Table 8.

Another assay deals with cucumber powdery mildew. The assay is described as follows: Test of control effect on cucumber powdery mildew (Test Example 2). The format is in vivo. As to conditions: wettable powder 100 mg/l, 100 liters/10 a, sprinkled on cucumbers (Sagamihanpakufushinari) before inoculation, examined 9th to 14th day after inoculation; for pest or weed control at 100 µg/mL: Cucumis sativus. How it is done: The wettable powders formulated by using each of the compounds I-1 to 27 according to the present invention and the comparative compounds (a) to (d), (m-1) and (m-3) were each diluted and suspended with water to a predetermined concentration (100 mg/l), the suspension was sprinkled over the first to the second leaf period cucumbers (variety: "[…]") cultivated by using a square plastic pot (size: 6. 4 cm x 6. 4 cm) in a rate of 100 liters/10 a (ares). After the sprinkled leaves were air-dried, the spores were inoculated over the leaves by sprinkling the same with a brush from an infected leaf, a disease was contracted in a glass house (temperature: 20 to 24°C, relative humidity: 20 to 70 RH). On the 9th to 14th day after the inoculation, the infection degree was examined according to the following scale and the control value of each compound was calculated by the following calculation equation 2: [table] (Equation 2) Control value = (1 - infection degree of treated zone/infection degree of untreated zone) x 100 (%) [formula] The control values of each compound are shown in Table 9.

The mark [4] stands for this setting: 100 ppm in PDA culture medium, cultured 1 to 7 days.
The mark [5] stands for this setting: length of non-contracted area relative to compound (m-2), 0.5 µl of 200 mg/l suspension applied to wheat leaf (Abukumawase), inoculated after one day.
Setting [6] is: Pseudocercosporella herpotrichoides, 25 ppm in PDA culture medium, cultured 1 to 7 days.
The mark [7] stands for this setting: 3.2 ppm in PDA culture medium, cultured 1 to 7 days.
The mark [8] stands for this setting: Leptosphaeria nodorum, 0.8 ppm in PDA culture medium, cultured 1 to 7 days.
[9] abbreviates: 1.6 ppm in PDA culture medium, cultured 1 to 7 days.
[10] abbreviates: Septoria tritici, 100 ppm in PDA culture medium, cultured 1 to 7 days.
[11] abbreviates: 12.5 ppm in PDA culture medium, cultured 1 to 7 days.

Like-named read-outs stand apart in the source and are kept apart here. Where only a bound is given, the exact number is not on record here.

As to `CC(Cc1ccc(OC(F)(F)F)cc1)CN(C)Cc1ccc(Cl)nc1` (stereo not drawn) [Compound I-12, 6-chloro-N-methyl-N-[3-(4-trifluoromethoxyphenyl)-2-methylpropyl]-3-pyridylmethylamine], the inhibition at 100 ppm was over 90% in the assay with Rhynchosporium secalis (setting [4]) and 70 to 90% in the assay on Septoria tritici (setting [10]). In addition, the inhibition at 12.5 ppm in the assay with Pyricularia oryzae and in the assay with Pyrenophora graminea (setting [11]) was 70 to 90% in each case. For the same molecule, the “Relative Mobility” value in the assay on wheat powdery mildew [1] (setting [5]) was found to be 10. In addition, the inhibition at 25 ppm in assay [2] (setting [6]) was over 90%. The inhibition at 3.2 ppm was over 90% in the assay on Microdochium nivale (setting [7]) and 70 to 90% with Venturia inaequalis (setting [7]). The inhibition at 0.8 ppm in the assay on Leptosphaeria nodorum (setting [8]) is over 90%. In addition, the inhibition at 1.6 ppm in the assay on Botrytis cinerea (setting [9]) lay within 70 to 90%. Further, in the assay with wheat powdery mildew [3], the pest or weed control at 125 µg/mL came to 100%. In the assay with cucumber powdery mildew, this molecule returned a pest or weed control at 100 µg/mL of 100%.

In the case of `CC(Cc1ccc(OC(F)(F)F)c(F)c1)CN(C)Cc1ccc(Cl)nc1` (stereo not drawn) [Compound I-17, 6-chloro-N-[3-(3-fluoro-4-trifluoromethoxyphenyl)-2-methylpropyl]-N-methyl-3-pyridylmethylamine], the inhibition at 100 ppm is over 90% in the assay with Rhynchosporium secalis (setting [4]) and 70 to 90% in the assay with Septoria tritici (setting [10]). The inhibition at 12.5 ppm in the assay with Pyricularia oryzae and in the assay on Pyrenophora graminea (setting [11]) was 70 to 90% throughout. Moreover, in the assay on wheat powdery mildew [1] (setting [5]), the “Relative Mobility” value is 10. In addition, the inhibition at 25 ppm in assay [2] (setting [6]) is over 90%. For the same molecule, the inhibition at 3.2 ppm in the assay with Microdochium nivale (setting [7]) is over 90%; with Venturia inaequalis (setting [7]) it was 70 to 90%. Besides, in the assay on Leptosphaeria nodorum (setting [8]), the inhibition at 0.8 ppm is over 90%. In addition, the inhibition at 1.6 ppm in the assay on Botrytis cinerea (setting [9]) is over 90%. The same molecule came in with a pest or weed control at 125 µg/mL with wheat powdery mildew [3] of 100%. Also, the pest or weed control at 100 µg/mL in the assay on cucumber powdery mildew came out at 100%.

In the case of `CC(Cc1cc(F)c(OC(F)(F)F)c(F)c1)CN(C)Cc1ccc(Cl)nc1` (stereo not drawn) [Compound I-20, 6-chloro-N-[3-(3,5-difluoro-4-trifluoromethoxyphenyl)-2-methylpropyl]-N-methyl-3-pyridylmethylamine], the inhibition at 100 ppm with Rhynchosporium secalis (setting [4]) and in the assay on Septoria tritici (setting [10]) was 70 to 90% in each case. Further, the inhibition at 12.5 ppm in the assay with Pyricularia oryzae and in the assay on Pyrenophora graminea (setting [11]) was 70 to 90% each time. Besides, the “Relative Mobility” value in the assay with wheat powdery mildew [1] (setting [5]) worked out at 9. Also, in assay [2] (setting [6]), the inhibition at 25 ppm was over 90%. Besides, the inhibition at 3.2 ppm with Microdochium nivale (setting [7]) and with Venturia inaequalis (setting [7]) was 70 to 90% in each case. The inhibition at 0.8 ppm in the assay with Leptosphaeria nodorum (setting [8]) is over 90%. Further, the inhibition at 1.6 ppm with Botrytis cinerea (setting [9]) was over 90%. The same molecule gave a pest or weed control at 125 µg/mL with wheat powdery mildew [3] of 100%. The molecule also returned a pest or weed control at 100 µg/mL in the assay with cucumber powdery mildew of 100%.

Turning to `CC(Cc1cc(F)cc(Cl)c1)CN(C)Cc1ccc(Cl)nc1` (stereo not drawn) [Compound I-21, 6-chloro-N-[3-(3-chloro-5-fluorophenyl)-2-methylpropyl] -N-methyl-3-pyridylmethylamine], the inhibition at 100 ppm is over 90% in the assay with Rhynchosporium secalis (setting [4]) and 70 to 90% in the assay on Septoria tritici (setting [10]). In addition, the inhibition at 12.5 ppm in the assay on Pyricularia oryzae was 70 to 90%; with Pyrenophora graminea (setting [11]), over 90%. Moreover, in the assay with wheat powdery mildew [1] (setting [5]), the “Relative Mobility” value is 9. The inhibition at 25 ppm in assay [2] (setting [6]) was over 90%. Besides, the inhibition at 3.2 ppm in the assay with Microdochium nivale (setting [7]) and in the assay on Venturia inaequalis (setting [7]) was 70 to 90% each time. In addition, the inhibition at 0.8 ppm in the assay on Leptosphaeria nodorum (setting [8]) was over 90%. In the assay with Botrytis cinerea (setting [9]), the inhibition at 1.6 ppm was over 90%. This molecule also showed a pest or weed control at 125 µg/mL with wheat powdery mildew [3] of 100%. The pest or weed control at 100 µg/mL in the assay with cucumber powdery mildew came to 100%.

Regarding `CC(Cc1ccc2c(c1)OC(F)(F)O2)CN(C)Cc1ccc(Cl)nc1` (stereo not drawn) [Compound I-24], the figures for the inhibition at 100 ppm in the assay with Rhynchosporium secalis and in the assay with Septoria tritici were over 90% and 70 to 90%, respectively. The inhibition at 12.5 ppm in the assay with Pyricularia oryzae was 70 to 90%; in the assay with Pyrenophora graminea, over 90%. For the same molecule, the “Relative Mobility” value with wheat powdery mildew [1] (24 h, 200 ug/mL) is on record as 6. For the same molecule, in assay [2], the inhibition at 25 ppm was over 90%. The inhibition at 3.2 ppm with Microdochium nivale and in the assay with Venturia inaequalis was 70 to 90% throughout. Further, in the assay with Leptosphaeria nodorum, the inhibition at 0.8 ppm was over 90%. Further, the inhibition at 1.6 ppm in the assay with Botrytis cinerea is 70 to 90%. Moreover, the “Control Value” with wheat powdery mildew [3] and in the assay on cucumber powdery mildew was 100% each time.

(Values after patent publication EP1375483A1, “6-CHLORO-3-PYRIDYLMETHYLPROPYLAMINE DERIVATIVES, PREPARATION PROCESS THEREOF AND BACTERICIDES” (KUREHA KAGAKU KOGYO KABUSHIKI KAISHA, priority 2001, dated 2001).)
